Source: PubChem BioAssay (NCI)
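48-hour exposure; five concentrations; linearly interpolated endpoints. The concentration for 50% growth inhibition is given as GI50. The concentration for full growth arrest is given as TGI.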

Columns and labels:
Assay in all cases: DTP human tumour cell line panel, 48 h
A549 NSCLC = test system: A549 NSCLC
CCRF-CEM leukemia = test system: CCRF-CEM leukemia
DU-145 prostate = test system: DU-145 prostate
HOP-62 NSCLC = test system: HOP-62 NSCLC
HT29 colon = test system: HT29 colon
MOLT-4 leukemia = test system: MOLT-4 leukemia
SF-295 CNS = test system: SF-295 CNS
SR leukemia = test system: SR leukemia
TK-10 renal = test system: TK-10 renal
UACC-257 melanoma = test system: UACC-257 melanoma

Structure (SMILES)	TGI (A549 NSCLC) [µM]	TGI (CCRF-CEM leukemia) [µM]	TGI (DU-145 prostate) [µM]	TGI (HOP-62 NSCLC) [µM]	TGI (HT29 colon) [µM]	TGI (MOLT-4 leukemia) [µM]	TGI (SF-295 CNS) [µM]	TGI (SR leukemia) [µM]	TGI (TK-10 renal) [µM]	TGI (UACC-257 melanoma) [µM]	GI50 (A549 NSCLC) [µM]	GI50 (CCRF-CEM leukemia) [µM]	GI50 (DU-145 prostate) [µM]	GI50 (HOP-62 NSCLC) [µM]	GI50 (HT29 colon) [µM]	GI50 (MOLT-4 leukemia) [µM]	GI50 (SF-295 CNS) [µM]	GI50 (SR leukemia) [µM]	GI50 (TK-10 renal) [µM]	GI50 (UACC-257 melanoma) [µM]
O=C1C(Cl)=C(NCCF)C(=O)c2ncccc21	4.07	0.806	2.99	4.39	7.29	3.72	3.21	> 10	3.65	3.03										
COc1ccc(CCN2C(=O)CC34C=CC(CC3C2=O)O4)cc1OC (stereo not given)	> 100	> 100	> 100	> 100	> 100	> 100	> 100	> 100	> 100	> 100										
C[n+]1ccccc1/C1=c2\cc/c([nH]2)=C(\c2cccc[n+]2C)C2=N/C(=C(/c3cccc[n+]3C)C3C=CC(N3)/C(c3cccc[n+]3C)=C3/C=CC1=N3)C=C2	> 100	> 100	> 100	> 100	> 100	> 100	> 100	> 100	> 100	> 100										
O=C1/C(=C/c2ccccc2)CCCc2ccccc21	67.1	43.6	54.7	36.3	36	48.1	35.9	37.8	37.5	33.3										
CC(=O)n1nc(-c2ccc3ccccc3c2)nc1C	> 100	> 100	> 100	> 100	> 100	> 100	> 100	> 100	> 100	> 100										
Cc1ccc(S(=O)(=O)NC(=O)NC(CCC(N)=O)C(=O)O)cc1 (stereo not given)	> 100	> 100	> 100	> 100	> 100	> 100	> 100	> 100	> 100	> 100										
COc1cccc2cc(C(=O)NC34CC5CC(CC(C5)C3)C4)c(=N)oc12	> 100	> 65.2	> 100	> 100	> 100	23.2	> 100	> 47.4	> 100	> 100										
O=c1c2c3c(sc2nc2n1N=CN(c1ccc(F)cc1)C2)CCCC3	> 100	> 100	> 100	> 100	> 100	> 100	> 100	> 100	> 100	> 100										
C1=NCCOCCN=Cc2ccc(cc2)OCc2cccc(n2)COc2ccc1cc2	> 100	> 100	> 100	> 100	> 100	> 100	> 100	> 100	> 100	> 100										
C#C[C@]1(O)CC[C@H]2[C@@H]3CCC4=C/C(=N/OC(=O)c5cccc6c(=O)c7ccccc7[nH]c56)CCC4[C@H]3CC[C@@]21CC (stereo not given in full)	> 100	> 54.1	> 100	> 100	> 50.7	> 69.2	> 100	35.7	> 100	> 88.1										
Cc1cc(NS(=O)(=O)c2ccc(Nc3c4ccccc4nc4c(C(=O)NCCO)cccc34)cc2)no1	> 100	75.2	> 100	> 100	78.8	> 100	> 100	> 100	> 100	> 100										
COc1ccccc1C1C(C#N)=C(N)Oc2cc(O)ccc21 (stereo not given)	> 100	29.1	94.1	60.2	45.1	45.4	80.6	21.1	> 100	94.6	26.8	12	26	15.8	16	13.1	16	3.48	27.6	27.7
CCOC1CCN(C(=O)c2ccccc2)O1 (stereo not given)	> 10	> 10	> 10	> 10	> 10	> 10	> 10	> 10	> 10	> 10										
O=P1(Cc2ccccc2)c2ccccc2-c2ccccc21	> 94.6	> 100	> 100	> 52.6	27.1	30.5	40.5	26.9	36	16										
O=C1NC(=Nc2ccccc2)C(=Nc2ccccc2)N1c1ccccc1	31	76.3	25.2	32.5	29.6	72.8	29.4	51.1	30.8	29.8										
Cc1ccc(SCC(OCn2cnc3c(Cl)nc(N)nc32)[C@H](C)F)cc1 (stereo not given in full)	> 100	> 100	> 100	> 100	> 100	> 100	> 100	> 100	> 100	> 100										
N#Cc1c(-c2ccc([N+](=O)[O-])cc2)cc(-c2ccc(Nc3ccnc4cc(Cl)ccc34)cc2)nc1N	8.8	3.8	33.2	29.7	8.86	5.4	37.6	2.48	43	62.3										
Cc1cc(N(CCC#N)CCC#N)ccc1/C(N=Nc1ccc([N+](=O)[O-])cc1)=N\NC(=O)c1ccccc1	> 100	> 100	> 100	> 100	71.4	> 100	> 100	> 100	> 100	> 100										
COc1ccc2oc(C(=O)N3CC(CCl)c4ccc(N)cc43)cc2c1 (stereo not given)	> 100	9.17	1.62	> 100	1.44	5.44	> 100	4.76	7.12	6.57										
Nc1c2cc3ccc2nc2ccc(cc12)OCCOCCOCCOCCOCCOCCO3	> 10	> 10	> 10	> 10	> 10	> 10	> 10	> 10	> 10	> 10										
NC(N)=N/N=C/c1c(-c2cc([N+](=O)[O-])c(Cl)cc2Cl)nc2n1CCS2	> 100	> 100	87.2	> 100	27.5	58.6	70.4	3.43	45.9	54.2										
CCNC(=S)NNC(=O)CSc1nc2ccc(I)cc2c(=O)n1Cc1ccccc1	> 100	> 100	> 100	> 100	> 100	> 100	> 100	> 100	> 100	> 87.1										
COc1cc(OC)c(OC)cc1/C=C/c1cc[n+](C)c2ccccc12	> 100	80.9	> 100	> 100	> 100	> 100	> 100	> 100	> 100	50.9										
